{"source": "patent US10448644B2", "about": "“Fungicide composition for natural fibers and natural fiber components” (Lisa Draexlmaier Gmbh, priority 2014, dated 2019)", "origin": "cited, not measured here", "key": {"[1]": {"conditions": "according to the German Federal Institute for Health Protection and Veterinary Medicine"}, "[2]": {"conditions": "animal experiments"}}, "data": [{"compound": "c1ccc2[nH]c(-c3cscn3)nc2c1", "note": "[thiabendazole]", "values": [{"measurement": "toxicity", "setting": "[1]", "result": "low"}, {"measurement": "carcinogenic effect", "setting": "[2]", "result": "found to have a carcinogenic effect"}]}]}
